Source: patent US20210401931A1, “METHODS AND MATERIALS FOR TREATING CANCER” (Mayo Foundation for Medical Education and Research, priority 2018, published 2021)
Ends that are not written are not given here.

Experiments:
p65-N = target: T1, p65-N (Homo sapiens, UniProt Q04206); assay: In vitro protein binding assay of RL peptide with GST-p65-N; details: compared to phosphorylation-resistant mutant
T1 construct: made in house

PTEN-CaP8 cells = assay: Pd-l1 and NFκB target gene expression in PTEN-CaP8 cells expressing RL peptide; type: cell-based, mouse
Protocol: FIGS. 13A-F. (A, B) PC-3 cells were treated with or without gamma irradiation (IR) (12 Gy). 24 hours post treatment, cells were treated with or without Helenalin (2 μM). 24 hours after treatment, cells were harvested for western blotting analysis (A) and RT-qPCR analysis (B). All data were shown as mean values±SD (n=3). “ns”=not significant, *** P<0.001. (C) PTEN-CaP8 cells were infected with lentivirus expression Tsin control or Tsin-RL S249D/T252D peptide. 72 hours post infection, cell were harvested for western blotting analysis. (D, E) PTEN-CaP8 cells were infected with lentivirus expression Tsin control or Tsin-RL S249D/T252D peptide. 72 hours post infection, cells were treated with or without gamma irradiation (12 Gy) for 48 hours. Cells were harvested for MTS assay (D) and RT-qPCR (E). All data were shown as mean values±SD (n=3). “ns”=not significant, ** P<0.01; *** P<0.001. (F) Schematic diagram depicting the treatment plan for mice bearing subcutaneous PTEN-CaP8 tumors.
Total RNA was isolated using TRIzol reagent (Thermo Fisher Scientific). The NanoDrop 2000 spectrophotometer (Thermo Fisher Scientific) was used to assess RNA yield and quality. […] Quantitative real-time PCR was performed by mixing cDNA, gene-specific primers, and IQ SYRB Green Supermix and detected by iCycler QTX detection system (Bio-Rad). The 2-ΔCt method was used to quantitate fold changes by normalizing to GAPDH. […]

[1] = tested on: NF-κB site of the PD-L1 promoter; assay: EMSA with biotin-labeled PD-L1-prom oligonucleotide and PC-3 nuclear extracts; type: cell-based, human; details: PC-3 cells expressing peptide
From the text: FIGS. 11A-H. (A) Heatmap showing differentially expressed genes (FDR<0.01) between palbociclib treatment versus DMSO and knockdown RB1 versus control. Gene expression values (FPKM) were Z-score normalized. FPKM, Fragments Per Kilobase of transcript per Million mapped reads. (B) UCSC Genome Browser screenshots of meta-analysis of published RB ChIP high throughput sequencing (ChIP-seq) data showing RB binding to CD274 (PD-L1) gene locus in K562 cells. PD-L1-prom oligonucleotide DNA containing NF-κB binding sequence was shown in the RB binding peak in the PD-L1 gene, the corresponding mutant PD-L1-prom oligonucleotide DNA was shown below. FIG. 11B discloses SEQ ID NOS 279-280, respectively, in order of appearance. (C) ChIP-qPCR analysis of RB binds at the PD-L1 promotor in PC-3 cells. All data were shown as mean values±SD (n=3). *** P<0.001. (D) ChIP-reChIP analysis examining the co-localization of p65 and RB in the PD-L1 promoters. All data were shown as mean values±SD (n=3). ** P<0.01. […]
FIGS. 21A-N. Effect of RB depletion, cell cycle, and RB-N S249/T252 phospho-mimicking peptide on PD-L1 expression in cell lines of various cancer types. […] 48 hours after infection, PD-L1 expression was determined by western blotting (A), RT-qPCR (B), and FACS (C). […] (D) Pd-l1 protein and mRNA levels were determined by western blotting in primary SKO and DKO mouse prostate tumor cell lines. […]

T1 sequence (Q04206 19-306 limits assumed): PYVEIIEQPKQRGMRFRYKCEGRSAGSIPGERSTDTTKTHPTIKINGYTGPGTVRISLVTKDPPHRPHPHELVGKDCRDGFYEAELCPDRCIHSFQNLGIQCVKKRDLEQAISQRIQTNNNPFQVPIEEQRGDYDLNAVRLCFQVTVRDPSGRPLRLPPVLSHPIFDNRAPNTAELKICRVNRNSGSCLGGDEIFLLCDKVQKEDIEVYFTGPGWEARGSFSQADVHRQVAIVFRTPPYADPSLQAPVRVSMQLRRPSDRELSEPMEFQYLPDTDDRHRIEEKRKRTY

RL-S249D/T252D: S249/T252 phospho-mimicking R-Linker (RL) peptide: fragment of RB-N containing 21 amino acids surrounding S249/T252, expressed SFB-tagged or by lentivirus (NGDPRDPRRGQNRSARIAKQL; also: expressed SFB-tagged (tag left off))
binding of in vitro transcribed and translated RL peptide to p65-N (p65-N): much stronger
expression of anti-apoptotic / pro-survival NFκB target genes (PTEN-CaP8 cells; PTEN-CaP8 cells, lentiviral peptide expression): blocked
Pd-l1 expression in PTEN-CaP8 cells (PTEN-CaP8 cells; lentiviral Tsin-RL S249D/T252D, 72 hours): completely blocked
p65 binding to the cognate DNA in the PD-L1 promoter [1]: inhibition
